Earlier results on 1 compound are cited in patent EP2392318A1 (Laboratorios Liconsa, S.A., priority 2010, dated 2011).

Molecules are shown by their SMILES.

Regarding `CCCCc1nc(Cl)c(CO)n1Cc1ccc(-c2ccccc2-c2nn[nH]n2)cc1` [losartan, 2-butyl-4-chloro-1-[[2'-(1H-tetrazol-5-yl)[1,1'-biphenyl]-4-yl]methyl]-1H-imidazole-5-methanol], the terminal half-life entry (after being orally administered) is “about 2 hours”. Further, the orally absorbed entry (in the gastrointestinal tract) is listed as “about 33%”.
